Laboratory results reported in patent publication US9228178B2, “Engineering of xylose reductase and overexpression of xylitol dehydrogenase and xylulokinase improves xylose alcoholic fermentation in the thermotolerant yeast Hansenula polymorpha” (Archer Daniels Midland Co., priority 2008, dated 2016).
Numbering of substitutions follows the chain as printed. Numbers in names are those of the source.

What was measured:
[1] = target: T1, Hansenula polymorpha xylose reductase (XR) variant XRm, K341R N343D, cofactor binding site SEQ ID NO: 2 (Ogataea polymorpha, UniProt A0A1B7SLF1, K271R/N273D); assay: KM towards NADPH or NADH of engineered xylose reductase (XRm), spectrophotometric XR assay in cell extract; conditions: XRm vs native XR
T1 sequence (A0A1B7SLF1 with tags, fused parts or gaps K271R/N273D): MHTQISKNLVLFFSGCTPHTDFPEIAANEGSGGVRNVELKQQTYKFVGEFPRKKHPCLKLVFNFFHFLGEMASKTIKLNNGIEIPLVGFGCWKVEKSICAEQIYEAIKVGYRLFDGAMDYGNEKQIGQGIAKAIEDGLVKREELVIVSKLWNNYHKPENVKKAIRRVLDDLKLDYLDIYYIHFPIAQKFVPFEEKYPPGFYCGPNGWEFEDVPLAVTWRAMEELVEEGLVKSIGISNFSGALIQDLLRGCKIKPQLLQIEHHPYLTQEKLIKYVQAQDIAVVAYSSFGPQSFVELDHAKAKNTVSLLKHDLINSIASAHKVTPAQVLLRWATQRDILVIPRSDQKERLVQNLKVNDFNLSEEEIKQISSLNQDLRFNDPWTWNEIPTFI
Experimental: The XR activity in cell extracts was determined spectrophotometrically at 37° C. […] The reaction was started with cell extract addition.
Biochemical properties of XR in one of constructed recombinant strains (designated XRm) were studied.

[2] = target: T2, Hansenula polymorpha xylose reductase (XR), native (XRn), cofactor binding site SEQ ID NO: 1 (Ogataea polymorpha, UniProt A0A1B7SLF1); assay: KM towards NADPH or NADH of native xylose reductase (XRn), spectrophotometric XR assay in cell extract; format: biochemical; conditions: dual cofactor specificity
T2 construct: native XYL1 ORF from CBS4732 genomic DNA, HpGAP promoter (pX1N-Z), overexpressed in H. polymorpha Δxyl1; cell extract
T2 sequence (A0A1B7SLF1 with tags, fused parts or gaps): T1 sequence (A0A1B7SLF1 with tags, fused parts or gaps K271R/N273D) with R341K, D343N
Experimental: (§1) The XR activity in cell extracts was determined spectrophotometrically at 37° C. […] The reaction was started with cell extract addition [3].

[3] = substrate: NC(=O)C1=CN([C@@H]2O[C@H](COP(=O)(O)OP(=O)(O)OC[C@H]3O[C@@H](n4cnc5c(N)ncnc54)[C@H](OP(=O)(O)O)[C@@H]3O)[C@@H](O)[C@H]2O)C=CC1; assay: cells, lysate or membranes; conditions: xylose as substrate, 37° C., pH 7.0, xylose 350 mM, NADPH 20-150 μM
[4] = substrate: NC(=O)C1=CN([C@@H]2O[C@H](COP(=O)(O)OP(=O)(O)OC[C@H]3O[C@@H](n4cnc5c(N)ncnc54)[C@H](O)[C@@H]3O)[C@@H](O)[C@H]2O)C=CC1; assay: cells, lysate or membranes; conditions: other: XRm, 37° C., pH 7.0, xylose 350 mM, NADH 20-150 μM
Experimental: as §1

NC(=O)C1=CN([C@@H]2O[C@H](COP(=O)(O)OP(=O)(O)OC[C@H]3O[C@@H](n4cnc5c(N)ncnc54)[C@H](O)[C@@H]3O)[C@@H](O)[C@H]2O)C=CC1 [NADH]
KM for NADH, compared with native XR (in words) [1]: remained nearly unchanged

NC(=O)C1=CN([C@@H]2O[C@H](COP(=O)(O)OP(=O)(O)OC[C@H]3O[C@@H](n4cnc5c(N)ncnc54)[C@H](OP(=O)(O)O)[C@@H]3O)[C@@H](O)[C@H]2O)C=CC1 [NADPH]
KM for NADPH, change against native XR (in words) [1]: significant increase
KM for NADPH, times higher than the KM for NADPH of the native XR ([1]; xylose as substrate): 17 times
cofactor preference for NADPH (over NADH) [2]: > 10 fold

B1: Hansenula polymorpha xylose reductase (XR) variant XRm, K341R N343D, cofactor binding site SEQ ID NO: 2 (Ogataea polymorpha; K271R/N273D) (protein)
chain: T1 sequence (A0A1B7SLF1 with tags, fused parts or gaps K271R/N273D)
Km ([3]; other: XRm): 152 µM
Km [4]: 112 µM

B2: Hansenula polymorpha xylose reductase (XR), native (XRn), cofactor binding site SEQ ID NO: 1 (Ogataea polymorpha) (protein)
chain: T1 sequence (A0A1B7SLF1 with tags, fused parts or gaps K271R/N273D) with R341K, D343N
Km ([3]; other: native XR): 9 µM
